Measured values taken from patent publication US8859021B2, “Skin appearance through gene manipulation” (Sytheon, priority 2007, dated 2014).
Like-named read-outs stand apart in the source and are kept apart here.

Tested on: EpiDerm tissues
Conditions: retinol 10 μg/ml, Sytenol A 5 μg/ml, 2 days, vs 0.1% DMSO control

CC1=C(/C=C/C(C)=C/C=C/C(C)=C/CO)C(C)(C)CCC1 [Retinol, retinol]
Fold Change, ACTN1 Alpha-actinin-1 (Alpha-actinin cytoskeletal isoform) (Table 8): +3.11 fold | Fold Change, ACTN1 Alpha-actinin-1 (Alpha-actinin cytoskeletal isoform) (Table 9): +3.11 fold | Fold Change, ACTN4 Alpha-actinin-4(F-actin cross-linking protein) (Table 8): +2.99 fold | Fold Change, ACTN4 Alpha-actinin-4(F-actin cross-linking protein) (Table 9): +2.99 fold | Fold Change, AFAP1L2 Actin filament-associated protein 1-like 2: +2.84 fold | Fold Change, C16orf30 Claudin-like protein 24: −2.23 fold | Fold Change, CDH1 Epithelia-cadherin precursor (E-cadherin) (Table 7): +9.39 fold | Fold Change, CDH1 Epithelial-cadherin precursor (E-cadherin) E-Cad/CTF1 (Table 9): +9.39 fold | Fold Change, CDH3 Cadherin-3-precursor (P-cadherin): +3.99 fold | Fold Change, CDH19 Cadherin-19-precursor: −4.11 fold | Fold Change, CDH24 Cadherin-24-precursor: +2.06 fold | Fold Change, CDK5R1 Tau protein kinase II 23 kDa subunit (Cyclin-dependent kinase 5 activator 1 precursor (CDK5 activator 1)): +2.17 fold | Fold Change, CLDN4 Claudin-4 (Clostridium perfringens enterotoxin receptor) (CPE-R): +3.63 fold | Fold Change, CLDN5 Claudin-5 (Transmembrane protein deleted in VCFS): −3.66 fold | Fold Change, CLDN6 Claudin-6 (Skullin 2): +2.59 fold | Fold Change, CLDN7 Claudin-7 (CLDN-7): +25.30 fold | Fold Change, CLDN11 Claudin-11 (Oligodendrocyte-specific protein): −2.86 fold | Fold Change, CLDN12 Claudin-12: +3.73 fold | Fold Change, CLDN16 Claudin-16 (Paracellin-1) (PCLN-1): +7.79 fold | Fold Change, COL1A2 Collagen alpha-2 (I) chain precursor (Alpa-2 type I collagen): +3.31 fold | Fold Change, COL3A1 Collagen alpha-1 (III) chain precursor: −2.36 fold | Fold Change, COL4A6 Collagen alpha-6 (IV) chain precursor: +6.41 fold | Fold Change, COL9A2 Collagen alpha-2 (IX) chain precursor: +5.56 fold | Fold Change, COL9A3 Collagen alpha-3 (IX) chain precursor: +4.05 fold | Fold Change, COL17A1 Collagen alpha-1 (XVII) chain precursor: +3.5 fold | Fold Change, CRABP1 Cellular retinoic acid-binding protein 1: +2.83 fold | Fold Change, CTHRC1 Collagen triple helix repeat-containing protein 1 precursor: −18.94 fold | Fold Change, CTNNAL1 Alpha-catenin-related protein (ACRP) (Table 8): −2.60 fold | Fold Change, CTNNAL1 Alpha-catenin-related protein (ACRP) (Table 9): −2.04 fold | Fold Change, CYP26B1 Cytochrome P450 26B1 (Retinoic acid-metabolizing cytochrome): +1.87 fold | Fold Change, Connective tissue growth factor precursor (Hypertrophic chondrocyte-specific protein 24): −4.61 fold | Fold Change, DHRS9 NADP-dependent retinol dehydrogenase/reductase: +5.48 fold | Fold Change, DSC1 Desmocollin-1-precursor (DG2/DG3): −7.49 fold | Fold Change, DSC2 Desmocollin-2-precursor (Desmocollin-3): +3.71 fold | Fold Change, DSG1 Desmoglein-1-precursor (DG1): −2.30 fold | Fold Change, DSG2 Desmoglein-2-precursor: +13.03 fold | Fold Change, DSG3 Desmoglein-3-precursor: +2.35 fold | Fold Change, DSG4 Desmoglein-4-precursor: No effect | Fold Change, ECM1 Extracellular matrix protein 1 precursor: No effect | Fold Change, ECM2 Extracellular matrix protein 2 precursor: +4.98 fold | Fold Change, ELA3B Elastase-3B precursor (Elastase IIIB): +5.89 fold | Fold Change, F11R Junctional adhesion molecule 1 (JAM-1): +5.77 fold | Fold Change, FLNB Actin-binding-like protein: +3.89 fold | Fold Change, FLRT2 Fibronectin-like-domain-containing leucine-rich transmembrane protein 2: −2.67 fold | Fold Change, FLRT3 Fibronectin-like-domain-containing leucine-rich transmembrane protein 3: +2.77 fold | Fold Change, FNDC7 Fibronectin type III domain containing 7: No effect | Fold Change, Fibroblast growth factor 9 (HBGF-9): −12.36 fold | Fold Change, Fibroblast growth factor 23 precursor (FGF-23) (Tumor-derived hypophosphatemia-inducing factor): −9.78 fold | Fold Change, Fibroblast growth factor receptor 2 precursor (FGFR-2): +6.50 fold | Fold Change, Fibroblast growth factor-binding protein 1 precursor (FGF-BP1): +3.51 fold | Fold Change, GSN Gelsolin precursor (Actin-depolymerizing factor) (ADF): +3.47 fold | Fold Change, HAS2 Hyaluronan synthase 2: −3.48 fold | Fold Change, HAS3 Hyaluronan synthase 3: +10.88 fold | Fold Change, HS3ST1 Heparan sulfate 3-O-sulfotransferase 1 (Table 6): +8.65 fold | Fold Change, HS3ST1 Heparan sulfate glucosamine 3-O-sulfotransferase 1 precursor (Heparan sulfate 3-O-sulfotransferase 1) (Table 3): +8.65 fold | Fold Change, HS6ST1 Heparan sulfate 6-O-sulfotransferase 1: +2.26 fold | Fold Change, HYAL1 Hyaluronidase-1-precursor: +2.16 fold | Fold Change, Heparin-binding EGF-like growth factor precursor (HB-EGF): +3.89 fold | Fold Change, IGSF1 Immunoglobulin superfamily, member 1 isoform 1: +3.11 fold | Fold Change, IGSF3 Immunoglobulin superfamily, member 3 isoform 2: +5.81 fold | Fold Change, ITG5 Integrin beta-5 precursor (Table 7): −2.42 fold | Fold Change, ITGA6 Integrin alpha-6 precursor: No effect | Fold Change, ITGA7 Integrin alpha-7 precursor: −5.53 fold | Fold Change, ITGB2 Integrin beta-2-precursor: −3.54 fold | Fold Change, ITGB4 Integrin beta-4-precursor (Table 3): +3.48 fold | Fold Change, ITGB4 Integrin beta-4 precursor (Table 7): +3.48 fold | Fold Change, ITGB5 Integrin beta-5 precursor (Table 3): −2.42 fold | Fold Change, ITGB6 Integrin beta-6-precursor (Table 3): +7.49 fold | Fold Change, ITGB6 Integrin beta-6-precursor (Table 7): +7.49 fold | Fold Change, ITGB8 Integrin beta-8 precursor (Table 3): No effect | Fold Change, ITGB8 Integrin beta-8 precursor (Table 7): No effect | Fold Change, ITGBL1 Integrin beta-like 1: −4.38 fold | Fold Change, Insulin growth factor-like family member 3 precursor (IGBP-3): −7.11 fold | Fold Change, Insulin growth factor-like family member 4 precursor (IGBP-4): +5.97 fold | Fold Change, Insulin-like growth factor-binding protein 6 precursor (IGBP-6): +5.89 fold | Fold Change, JUP Catenin gamma (Junction plakoglobin) (Table 8): +2.43 fold | Fold Change, JUP Catenin gamma (Table 9): +2.43 fold | Fold Change, KIF1C Kinesin-like protein KIF1C: +2.47 fold | Fold Change, KIF2A Kinesin-like protein KIF2A: −3.62 fold | Fold Change, KIF4A Chromosome-associated kinesin KIF4A: +2.08 fold | Fold Change, KIF13A Kinsein-like protein KIF13A: −2.27 fold | Fold Change, KIF13B Kinsein-like protein KIF13B: +2.91 fold | Fold Change, KIF17 Kinesin-like protein KIF17: +2.18 fold | Fold Change, KIF26A Kinesin family member 26A: −2.93 fold | Fold Change, KIFC2 Kinesin-like protein KIFC2: −2.45 fold | Fold Change, KRT2 Keratin-2; Cytokeratin-2e (CK 2e): −8.37 fold | Fold Change, KRT5 Keratin-5, Cytokeratin-5 (CK-5): +2.39 fold | Fold Change, KRT7 Keratin-7; Cytokeratin-7 (CK-7): +8.75 fold | Fold Change, KRT13 Keratin-13; Cytokeratin-13 (CK-13): +14.17 fold | Fold Change, KRT15 Keratin-15; Cytokeratin-15 (CK-15): +5.48 fold | Fold Change, KRT19 Keratin-19; Cytokeratin-19 (CK-19): +11.27 fold | Fold Change, LAMA3 Laminin subunit alpha-3 precursor (Epiligrin 170 kDa subunit): +4.70 fold | Fold Change, LAMC2 Laminin subunit gamma-2 precursor (Laminin B2t chain): +2.68 fold | Fold Change, LRAT Lecithin retinol acyltransferase: +12.3 fold | Fold Change, LRRC49 Tubulin polyglutamylase complex subunit 4 (PGs4): −2.83 fold | Fold Change, MC1R, TUBB3 Tubulin beta-3-chain (Tubulin beta-III): +2.99 fold | Fold Change, MMP9 Matrix metalloprotease-9-precursor: +8.35 fold | Fold Change, MMP15 Matrix metalloprotease-15 precursor: +3.67 fold | Fold Change, MMP21 Matrix metalloprotease-21 precursor: No effect | Fold Change, MMP23A, MMP23B Matrix metalloprotease-23: −5.78 fold | Fold Change, MMP26 Matrix metalloprotease-26-precursor (MMP-26): +4.31 fold | Fold Change, MMP28 Matrix metalloprotease-28-precursor: +3.88 fold | Fold Change, MYH14 Myosin-14: +3.38 fold | Fold Change, MYL2 Myosin regulatory light chain 2: No effect | Fold Change, MYO1F Myosin-lf (Myosin-le): +6.29 fold | Fold Change, MYO6 Myosin-VI: No effect | Fold Change, Mast/stem cell growth factor receptor precursor (SCFR) (Proto-oncogene tyrosine-protein kinase kit (c-kit)): −3.36 fold | Fold Change, NDST4 N-heparan sulfate sulfotransferase 4: No effect | Fold Change, NEIL2 DNA glycosylase/AP lyase Neil2: +12.79 fold | Fold Change, NF-kappa-B-activating protein: −2.13 fold | Fold Change, NGRN, TTLL13 Tubulin tyrosine ligase-like family, member 13: +11.61 fold | Fold Change, NID2 Nidogen-2-precursor: −17.36 fold | Fold Change, NT5C1B, RDH14 Retinol dehydrogenase 14 (Alcohol dehydrogenase PAN20): −5.33 fold | Fold Change, Nuclear factor Kappa B p105 unit (NF-kappa-B) (DNA-binding factor KBF 1): −3.62 fold | Fold Change, PARP2 Poly (ADP-ribose) polymerase 2: +2.08 fold | Fold Change, PARP9 Poly (ADP-ribose) polymerase 9: +5.92 fold | Fold Change, PARP12 Poly (ADP-ribose) polymerase 12: +4.69 fold | Fold Change, PARP15 Poly (ADP-ribose) polymerase 15: +6.37 fold | Fold Change, PCDH11X Procadherin-11: +3.18 fold | Fold Change, PCDH18 Procadherin-18-precursor: −2.49 fold | Fold Change, PCDH19 Procadherin-19-precursor: −3.41 fold | Fold Change, PCDHB1 Procadherin-beta-1-precursor: No effect | Fold Change, PCDHB2 Procadherin-beta-2-precursor: No effect | Fold Change, PCDHB3 Procadherin-beta-3-precursor: −6.57 fold | Fold Change, PCDHB4 Procadherin-beta-4-precursor: −2.62 fold | Fold Change, PFN4 Profilin-4 (Profilin IV): +4.77 fold | Fold Change, PI3 Elastase-specific inhibitor: +2.45 fold | Fold Change, Protein Kinase B (RAC-alpha serine/threonine-protein kinase) (RAC-PK-alpha): −5.09 fold | Fold Change, RARB Retinoic acid receptor beta-1: +5.63 fold | Fold Change, RARG Retinoic acid receptor gama-1: +1.87 fold | Fold Change, RARRES1 Retinoic acid receptor responder protein 1: +13.25 fold | Fold Change, RBP1 Cellular Retinol-binding protein-I: +2.6 fold | Fold Change, RBP2 Cellular Retinol-binding protein-II: No effect | Fold Change, RBP7 Cellular retinoic acid-binding protein 4: No effect | Fold Change, RETSAT All-trans-retinol 13,14-reductase precursor: −2.97 fold | Fold Change, SELE E-selection precursor (Endothelial leukocyte adhesion molecule 1) (ELAM-1): −2.11 fold | Fold Change, SERPINB1 Leukocyte elastase inhibitor: +3.80 fold | Fold Change, SIR2-like protein1/NAD-dependent deacetylase sirtuin-1 (hSIRT1): −1.89 fold | Fold Change, SIR2-like protein2/NAD-dependent deacetylase sirtuin-2: +1.52 fold | Fold Change, SIR2-like protein7/NAD-dependent deacetylase sirtuin-7: +1.58 fold | Fold Change, SRRM1 Serine/arginine repetitive matrix protein 1 (SR-related nuclear matrix protein 160 kDa) (SRm160): +3.57 fold | Fold Change, TBCEL Tubulin-specific chaperone cofactor E-like protein (EL): +2.20 fold | Fold Change, TTBK1 Tau-tubulin kinase 1: −7.99 fold | Fold Change, TTLL1 Tubulin polyglutamylase complex subunit 3 (PGs3): +1.92 fold | Fold Change, TUBB2B Tubulin beta-2B chain: −2.56 fold | Laminins gene regulation (in words): up-regulate | Fold Change, ITGA7 Integrin alpha-7 precursor (listed as retinol): significant down-regulatory effect | Fold Change, ITGB5 Integrin beta-5 precursor (Table 3) (listed as retinol): significant down-regulatory effect | Fold Change, ITGBL1 Integrin beta-like 1 (listed as retinol): significant down-regulatory effect | Fold Change, NID2 Nidogen-2-precursor (listed as retinol): significant down-regulation
